One data set addresses T1, mouse TLR7 (Mus musculus, UniProt P58681).
T1 construct: expressed in transfected cells; host or cells: Ba/F3 cells (provided by Prof. Kensuke Miyake, University of Tokyo)
T1 sequence (P58681 27-1050): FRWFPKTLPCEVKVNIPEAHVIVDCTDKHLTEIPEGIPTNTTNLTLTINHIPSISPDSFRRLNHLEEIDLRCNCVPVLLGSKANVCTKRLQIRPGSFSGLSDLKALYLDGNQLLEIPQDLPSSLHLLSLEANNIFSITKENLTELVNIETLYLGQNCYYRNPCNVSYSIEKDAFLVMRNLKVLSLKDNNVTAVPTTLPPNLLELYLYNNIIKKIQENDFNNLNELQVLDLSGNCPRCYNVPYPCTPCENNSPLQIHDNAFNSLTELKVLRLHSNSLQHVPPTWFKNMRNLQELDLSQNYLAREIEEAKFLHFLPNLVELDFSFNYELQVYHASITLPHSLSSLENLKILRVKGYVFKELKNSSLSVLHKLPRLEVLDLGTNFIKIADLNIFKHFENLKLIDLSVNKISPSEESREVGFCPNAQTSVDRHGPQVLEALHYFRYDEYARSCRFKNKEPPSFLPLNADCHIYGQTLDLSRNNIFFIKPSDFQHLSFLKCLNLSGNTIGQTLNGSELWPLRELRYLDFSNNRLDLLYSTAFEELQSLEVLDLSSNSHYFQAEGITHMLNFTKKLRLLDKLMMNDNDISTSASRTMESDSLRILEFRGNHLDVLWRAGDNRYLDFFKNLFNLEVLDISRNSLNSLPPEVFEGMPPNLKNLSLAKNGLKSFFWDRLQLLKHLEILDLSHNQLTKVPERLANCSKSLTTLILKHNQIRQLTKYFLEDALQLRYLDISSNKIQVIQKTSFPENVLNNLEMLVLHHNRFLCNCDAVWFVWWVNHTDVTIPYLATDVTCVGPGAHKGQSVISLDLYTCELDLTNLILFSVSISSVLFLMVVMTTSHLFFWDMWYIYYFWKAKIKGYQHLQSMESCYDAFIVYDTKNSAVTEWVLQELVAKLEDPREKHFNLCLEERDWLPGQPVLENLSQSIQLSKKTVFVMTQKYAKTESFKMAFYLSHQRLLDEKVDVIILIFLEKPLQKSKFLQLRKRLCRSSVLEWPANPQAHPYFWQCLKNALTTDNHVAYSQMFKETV
In words: Inhibition of TLR7 activation in mouse TLR7-expressing NF-κB-GFP reporter Ba/F3 cells. The format is cell-based. Conditions: Example 5, Table 5; method of Example 2; read-out: IC50. From the text:
Mouse TLR7-expressing reporter cells (Ba/F3 cells) were used to evaluate inhibition of TLR7 activation in each derivative and CB-7. These cells were provided by Professor Kensuke Miyake (Department of Infection Genetics, Institute of Medical Science, University of Tokyo). These cells have been transfected with a reporter gene that connects GFP gene downstream of the promoter region of NF-κB. Therefore, the expression of GFP is enhanced by the addition of a ligand for TLR7 expressed by the cells. The fluorescence intensity of GFP was attenuated by the addition of each derivative, and the inhibition of TLR7 activation by each derivative was evaluated as an indicator.
Loxoribine (Alexis Biochemicals) was used as the ligand for mouse TLR7. Gardiquimod (Invivogen) was used as the ligand for human TLR7.
Ba/F3 cells cultured in RPMI 1640 medium containing 10% (v/v) fetal calf serum (FCS), 50 U/mL penicillin, 50 μg/mL streptomycin, 2 mM L-glutamine, […] 2-mercaptoethanol, 1 ng/mL interleukin-3 were aliquoted into 96-well plates so that the number of cells per well was 1.0×10^5 cells/100 μL. 50 μL of each derivative or CB-7, prepared to final concentrations of 1, 5, 10, 25, 50, and 100 µM, was added to each well. 96-well plates were incubated at 37° C. for 30 minutes in the presence of 5% CO2. Next, 250 μg/mL Roxoribin was added to each well and incubated for 18 hours. At the end of incubation, cells were washed with PBS (FACS buffer) containing 2.5% (v/v) FCS and suspended in 200 μL of FACS buffer containing 25 μg/mL […] for each cell. GFP fluorescence intensities of the cells were analyzed by flow cytometry. Flow cytometry measurement was performed on a FACSCanto™ II (Becton Dickinson) and data were analyzed with FlowJo software (Tree Star). The MFI (%) upon stimulation with roxoribin in the presence of […] derivatives or CB-7 was calculated using the MFI upon stimulation with roxoribin alone as 100%, and then IC50 (chemical compound concentration that inhibits activity by 50%) was calculated by logistic regression analysis.
The evaluation of the TLR7 activation inhibition by B2-24-4-5A·HCOOH was performed by the method described in Example 2. CB-7 and B2-24-4·HCl were used as controls.

A short description of data set [1]: Plasma concentration in normal mice after oral administration. Particulars: C57BL/6N mice, 1 mg orally. It is filed as in vivo, mice (C57BL/6N). On the procedure:
Plasma concentrations of CB-7 or B2-24-4-5A·HCOOH were measured in normal mice (C57BL/6N, 11 weeks old, female) after oral administration. 1 mg of CB-7 or B2-24-4-5A·HCOOH was administered orally to mice C57BL/6N. After 0.5, 1, 2, 4, or 8 hours, blood was collected from mice C57BL/6N to prepare plasma. The concentration of CB-7 or B2-24-4-5A·HCOOH in the plasma was measured by LC/MS/MS.

Broadly, the IC50 is the concentration at which inhibition is half-maximal.

Turning to `C=C(C)[C@@H]1CC[C@]2(COC(=O)C2)C[C@H]1c1ccc(CN2CCNCC2)cc1` [B2-24-4-5A·HCOOH], the IC50 on mouse TLR7 was 167 nM. In data set [1], the “Persistence in plasma compared to CB-7” value is recorded as “remains in plasma for a longer time than CB-7”. The same compound showed a concentration at 8 h in data set [1] (female, mouse, plasma, po, LC/MS/MS) of roughly 500 ng/mL.

The record behind these values is patent US12410157B2, “Compound useful as toll-like receptor 7 activation inhibitor” (TOYAMA PREFECTURAL UNIVERSITY, priority 2020, dated 2025).
